Where two headings read alike, the source gives them in different places.
Key:
[1] = biological target: P-gp (Homo sapiens, UniProt P08183); conditions: previous work; cited from earlier work
[2] = test system: CRC organoids engrafted in swine small intestine tissue; assay: ex vivo CRC organoid-in-intestine platform, GFP+ tumor cells by flow cytometry; assay type: cell-based; conditions: for IC50: System: Tissue (pig ex vivo colorectal cancer platform), 24 hours drug treatment
[3] = test system: Caco2 cells; assay: CellTiter-Glo Luminescent cell viability assay; assay type: cell-based; conditions: Homo sapiens, Caco-2; System: Cell (Caco2)
[4] = test system: HT29 cells; assay: CellTiter-Glo Luminescent cell viability assay; assay type: cell-based; conditions: Homo sapiens, HT-29; System: Cell (HT29)
[5] = test system: HCT15 cells; assay: CellTiter-Glo Luminescent cell viability assay; assay type: cell-based; conditions: System: Cell (HCT15)
[6] = test system: Colo320DM cells; assay: CellTiter-Glo Luminescent cell viability assay; assay type: cell-based; conditions: System: Cell (Colo320DM)
[7] = test system: CRC organoids (APC−/TP53−/SMAD4− triple knockout); assay: CellTiter-Glo cytotoxicity assay on CRISPR-engineered CRC organoids; conditions: read-out: IC50 (uM) ± SD

P-gp, sequence (P08183 whole entry): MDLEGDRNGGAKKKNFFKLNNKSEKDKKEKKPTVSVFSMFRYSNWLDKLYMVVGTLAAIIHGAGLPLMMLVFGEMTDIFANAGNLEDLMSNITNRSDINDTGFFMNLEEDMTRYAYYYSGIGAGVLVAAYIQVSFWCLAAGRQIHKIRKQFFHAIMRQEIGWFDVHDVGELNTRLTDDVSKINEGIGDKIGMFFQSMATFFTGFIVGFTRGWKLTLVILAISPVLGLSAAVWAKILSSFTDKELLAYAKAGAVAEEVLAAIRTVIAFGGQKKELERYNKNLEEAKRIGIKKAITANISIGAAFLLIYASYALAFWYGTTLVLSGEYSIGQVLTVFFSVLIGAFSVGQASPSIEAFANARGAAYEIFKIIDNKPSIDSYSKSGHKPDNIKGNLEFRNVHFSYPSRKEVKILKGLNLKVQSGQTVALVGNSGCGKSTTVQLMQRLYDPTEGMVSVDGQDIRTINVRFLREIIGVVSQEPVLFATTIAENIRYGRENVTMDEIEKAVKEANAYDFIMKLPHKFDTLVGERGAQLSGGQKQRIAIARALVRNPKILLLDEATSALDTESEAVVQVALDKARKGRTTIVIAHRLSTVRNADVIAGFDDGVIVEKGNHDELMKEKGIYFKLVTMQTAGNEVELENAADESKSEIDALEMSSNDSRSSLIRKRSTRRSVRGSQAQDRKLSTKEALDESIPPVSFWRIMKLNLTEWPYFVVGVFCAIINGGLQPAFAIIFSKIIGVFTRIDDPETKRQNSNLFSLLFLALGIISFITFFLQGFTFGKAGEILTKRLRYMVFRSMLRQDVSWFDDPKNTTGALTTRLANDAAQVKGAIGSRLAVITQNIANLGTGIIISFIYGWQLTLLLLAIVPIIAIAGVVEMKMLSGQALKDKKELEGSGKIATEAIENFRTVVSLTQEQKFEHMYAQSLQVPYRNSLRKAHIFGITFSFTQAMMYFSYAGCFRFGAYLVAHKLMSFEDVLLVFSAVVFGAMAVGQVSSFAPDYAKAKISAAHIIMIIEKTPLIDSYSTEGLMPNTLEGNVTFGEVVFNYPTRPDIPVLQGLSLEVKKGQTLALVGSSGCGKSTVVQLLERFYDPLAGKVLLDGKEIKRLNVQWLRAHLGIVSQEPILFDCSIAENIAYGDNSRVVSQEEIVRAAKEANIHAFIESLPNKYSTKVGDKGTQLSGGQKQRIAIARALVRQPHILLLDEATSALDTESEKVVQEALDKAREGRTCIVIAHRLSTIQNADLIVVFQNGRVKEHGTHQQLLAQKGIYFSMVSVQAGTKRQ

## vitamin A
[1]
  P-gp inhibition and drug uptake: inhibit P-gp and increase drug uptake
[2]; ex vivo CRC platform, FIGS. 8B-8C, one-way ANOVA p<0.05
  potency of irinotecan in combination with predicted P-gp modulator: significantly increased the potency irinotecan

## COc1cccc2c1C(=O)c1c(O)c3c(c(O)c1C2=O)C[C@@](O)(C(=O)CO)C[C@@H]3O[C@H]1C[C@H](N)[C@H](O)[C@H](C)O1 [Doxirubicine, doxorubicin]
[3]
  IC50: 2.85 ± 0.712 µM
[4]
  IC50: 3.88 ± 2.13 µM
[5]; Homo sapiens, HCT-15
  IC50: 1.51 ± 0.226 µM
[6]; Homo sapiens, COLO 320DM
  IC50: 6.99 ± 1.23 µM
[2]; Sus scrofa
  IC50: 0.739 ± 0.082 µM
[7]; Sus scrofa
  IC50: 10.1 ± 2.33 µM

## CS(=O)(=O)CCNCc1ccc(-c2ccc3ncnc(Nc4ccc(OCc5cccc(F)c5)c(Cl)c4)c3c2)o1 [Lapatinib, lapatinib]
[2]; Sus scrofa
  IC50: 0.499 ± 0.087 µM
[7]; Sus scrofa
  IC50: 0.39 ± 0.21 µM

## O=C1[O][Pt]2([NH][C@@H]3CCCC[C@H]3[NH]2)[O]C1=O [Oxiliplatin, oxaliplatin]
[5]
  IC50: 15.5 ± 4.99 µM
[6]
  IC50: 10.5 ± 1.71 µM
[2]
  IC50: 8.61 ± 3.38 µM
[7]; System: Organoid (without transplantation into tissue)
  IC50: 18 ± 4.72 µM
